This note sets out measurements from patent US20140023611A1 (priority 2010, published 2014).

Each structure is given as a SMILES string. Where “and” joins values, the source holds several entries; their conditions need not be identical. Equal entries are not always repeated. A value given as a limit tells only on which side of the number the result lay.

The target in one data set is T1, rat NaP2b (SLC34A2) (Rattus norvegicus, UniProt Q9JJ09).
T1 construct: host or cells: HEK293
T1 sequence (Q9JJ09 1-695): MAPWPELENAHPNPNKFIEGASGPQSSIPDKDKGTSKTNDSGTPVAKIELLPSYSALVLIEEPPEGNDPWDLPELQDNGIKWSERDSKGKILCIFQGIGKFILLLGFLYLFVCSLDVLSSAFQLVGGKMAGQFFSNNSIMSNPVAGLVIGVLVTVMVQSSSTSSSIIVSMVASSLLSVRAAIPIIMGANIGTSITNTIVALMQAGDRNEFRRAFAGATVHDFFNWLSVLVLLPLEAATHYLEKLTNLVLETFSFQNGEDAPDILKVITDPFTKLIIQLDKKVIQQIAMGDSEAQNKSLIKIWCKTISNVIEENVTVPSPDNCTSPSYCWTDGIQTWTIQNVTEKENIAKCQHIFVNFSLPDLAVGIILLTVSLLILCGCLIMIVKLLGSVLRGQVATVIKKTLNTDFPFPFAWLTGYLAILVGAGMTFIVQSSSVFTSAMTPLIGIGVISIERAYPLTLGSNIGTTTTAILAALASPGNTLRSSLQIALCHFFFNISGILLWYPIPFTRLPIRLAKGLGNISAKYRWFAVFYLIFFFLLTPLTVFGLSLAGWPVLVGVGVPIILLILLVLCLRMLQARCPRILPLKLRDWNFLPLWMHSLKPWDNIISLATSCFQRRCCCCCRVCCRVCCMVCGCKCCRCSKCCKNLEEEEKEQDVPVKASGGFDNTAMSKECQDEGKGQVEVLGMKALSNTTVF
Put plainly: Inhibition of NaP2b-mediated Pi (33P) uptake in transfected HEK293 cells, rat NaP2b. The class given is cell-based. The note with it: 33P Pi uptake, 0.1 mM phosphate, value given as pIC50 range. An outline of the steps:
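HEK293 cells were transiently transfected with NaP2b cDNA using Lipofectamine and grown near confluence. Compounds were tested at twelve concentrations from 0.1 nM to 30 uM in duplicate, and 33P-phosphate uptake was counted by scintillation after lysis. Results are expressed as pIC50.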

Data set [1] is described as follows: Determination of compound Cmax and AUC after oral gavage (plasma LC-MS/MS). In kind it is in vivo, Sprague-Dawley rats. The note with it: Sprague-Dawley, rat, plasma, po, Structure (I) examples, Table 15, actual oral dose 3-15 mg/kg, plasma 0.5-4 h. The method, boiled down: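 Sprague-Dawley rats dosed by oral gavage at nominal 2.5 or 10 mg/kg; blood drawn at 0.5, 1, 2 and 4 h into K2EDTA. Plasma protein-precipitated with acetonitrile plus internal standard and analysed by LC-MS/MS against a plasma standard curve to derive Cmax and AUC.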

With `O=C(O)c1cccc(SCc2cccc(C(=O)Nc3ccc(N4CCCCC4)cc3-c3cc(C(=O)NCc4cccc(C(F)(F)F)c4)ccn3)c2)c1` [Example 8.1, 3-(3-(4-(piperidin-1-yl)-2-(4-(3-(trifluoromethyl)benzylcarbamoyl)pyridin-2-yl)phenylcarbamoyl)benzylthio)benzoic acid], the IC50 (in general, the concentration that inhibits the measured activity by half) on rat NaP2b (SLC34A2) is 10 to 31.6 µM and < 1 µM. For the same molecule, in data set [1], the AUC (as a rule, the area under the concentration-time curve, a measure of exposure) was less than 30 ng·h/mL and the Cmax (as a rule, the highest concentration seen after dosing) was less than 10 ng/mL.

For the molecule `O=C(NCc1cccc(C(F)(F)F)c1)c1ccnc(-c2cc(N3CCCCC3)ccc2NC(=O)c2cccc(CSc3ccc(C(=O)O)c(Br)c3)c2)c1` [Example 8.21], at rat NaP2b (SLC34A2), the IC50 was 1 to 7.94 µM. Moreover, in data set [1], the AUC was less than 30 ng·h/mL and the Cmax was less than 30 ng/mL.

At rat NaP2b (SLC34A2), `CN(CCN1CCOCC1)C(=O)c1cccc(C(=O)Nc2ccc(N3CCCCC3)cc2-c2cc(C(=O)NCc3cccc(C(F)(F)F)c3)ccn2)c1` [Example 80, N1-Methyl-N1-(2-morpholinoethyl)-N3-(4-(piperidin-1-yl)-2-(4-((3-(trifluoromethyl)benzyl)carbamoyl)pyridin-2-yl)phenyl)isophthalamide] gave an IC50 of 1 to 7.94 µM. For the same molecule, the peak concentration (Cmax) in data set [1] is less than 10 ng/mL.

For `CN(CCOCCOCCOCCC(=O)O)C(=O)Cc1cccc(SCc2cccc(C(=O)Nc3ccc(N4CCCCC4)cc3-c3cc(C(=O)NCc4cccc(C(F)(F)F)c4)ccn3)c2)c1` [Example 138], the 50% inhibitory concentration (IC50) at rat NaP2b (SLC34A2) is 1 to 7.94 µM. In data set [1], this molecule registered an AUC of less than 10 ng·h/mL and a Cmax of less than 10 ng/mL.

At rat NaP2b (SLC34A2), `O=C(O)CCOCCOCCOCCOCCSCc1cccc(C(=O)Nc2ccc(N3CCCCC3)cc2-c2cc(C(=O)N[C@H]3CCCc4ccccc43)ccn2)c1` [Example 142, 1-(3-{[4-(piperidin-1-yl)-2-(4-{[(1S)-1,2,3,4-tetrahydronaphthalen-1-yl]carbamoyl}pyridin-2-yl)phenyl]carbamoyl}phenyl)-5,8,11,14-tetraoxa-2-thiaheptadecan-17-oic acid] showed an IC50 of less than 1 µM. In data set [1], this molecule yielded an AUC of less than 10 ng·h/mL and a Cmax of less than 10 ng/mL.

Regarding `CCN(CC)c1ccc(NC(=O)c2cccc(CSc3cccc(CC(=O)N(C)CCOCCOCCOCCC(=O)O)c3)c2)c(-c2cc(C(=O)NCc3cccc(C(F)(F)F)c3)ccn2)c1` [Example 144, 3-(2-(2-(2-(2-(3-(3-(4-(diethylamino)-2-(4-(3-(trifluoromethyl)benzylcarbamoyl)pyridin-2-yl)phenylcarbamoyl)benzylthio)phenyl)-N-methylacetamido)ethoxy)ethoxy)ethoxy)propanoic acid], the concentration for half-maximal inhibition (IC50) at rat NaP2b (SLC34A2) was less than 1 µM. In data set [1], the AUC was less than 10 ng·h/mL and the Cmax is less than 10 ng/mL.

For the molecule `CCN(CC)c1ccc(NC(=O)c2cccc(CSCCOCCOCCOCCOCCOCCOCCOCCOCCC(=O)O)c2)c(-c2cc(C(=O)N[C@H]3CCCc4ccccc43)ccn2)c1` [Example 161, (S)-1-(3-(4-(diethylamino)-2-(4-(1,2,3,4-tetrahydronaphthalen-1-ylcarbamoyl)pyridin-2-yl)phenylcarbamoyl)phenyl)-5,8,11,14,17,20,23,26-octaoxa-2-thianonacosan-29-oic acid], the IC50 on rat NaP2b (SLC34A2) was 1 to 7.94 µM. Also, in data set [1], the AUC was less than 10 ng·h/mL and the Cmax was less than 10 ng/mL.

Turning to `CCN(CC)c1ccc(NC(=O)c2cccc(CSCCOCCOCCOCCOCCC(=O)O)c2)c(-c2cc(C(=O)NCc3cccc(C(F)(F)F)c3)ccn2)c1` [Example 162, 1-(3-(4-(diethylamino)-2-(4-(3-(trifluoromethyl)benzylcarbamoyl)pyridin-2-yl)phenylcarbamoyl)phenyl)-5,8,11,14-tetraoxa-2-thiaheptadecan-17-oic acid], the IC50 against rat NaP2b (SLC34A2) was less than 1 µM. In data set [1], this molecule gave an AUC of less than 10 ng·h/mL and a Cmax of less than 10 ng/mL.
